Source: ChEMBL document CHEMBL1201862, “PubChem BioAssay data set” (2004)
Blank lines part the entries; values can stand above or below the molecule they belong to. Active and inactive are the calls of the source.

What was measured:
[1] = target: Lysosomal acid glucosylceramidase (Homo sapiens, UniProt P04062); assay: Dose response cell-based high throughput screening assay to identify enhancers of beta-glucosidase activity. [Related pubchem assays: 784 ]; assay type: functional
[2] = target: Cytochrome P450 3A4 (Homo sapiens, UniProt P08684); settings: Potency;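 note: confirmatory qHTS run detecting inhibitors and substrates of CYP3A4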
[3] = target: Cytochrome P450 2C9 (Homo sapiens, UniProt P11712); settings: Potency
[4] = target: Melanin-concentrating hormone receptor 1 (Homo sapiens, UniProt Q99705); assay: Late-stage fluorescence-based counterscreen for antagonists of the G-protein coupled receptor 7 (GPR7): cell-based dose response assay to identify antagonists of the melanin-concentrating hormone receptor 1 (MCHR1). [Related pubchem assays (depositor defined):AID1861, AID1880, AID1952, AID2148, AID2251, AID2257, AID485339]; assay type: functional;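 note: stimulated with 30 nM MCH peptide agonist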
[5] = system: HEK293; assay: Fluorescence-based counterscreen for potentiators or agonists of NPY-Y2: cell-based high-throughput dose response assay to identify inhibitors of cyclic nucleotide gated ion channel (CNGC) activity. In this assay, the parental HEK293 cell line transfected with a cyclic-nucleotide gated ion channel (CNGC)-based cAMP sensor is used to measure inhibition of isoproterenol-induced CNGC activity by test compound.; assay type: functional; settings: Homo sapiens;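 note: stimulus is 1 µM isoproterenol at EC100 plus PDE inhibitor Ro 20-1724 at 25 µM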
[6] = target: Neuropeptide Y receptor type 1 (Homo sapiens, UniProt P25929); assay: Fluorescence-based counterscreen for agonists of NPY-Y2: cell-based high-throughput dose response assay for agonists of NPY-Y1.; assay type: functional
[7] = off-target signal loss in HeLa-CEM21 co-culture – HeLa F-luc CTL cells, cherry-picked, counter-screen for HIV-1 Env fusion inhibitor project, dose response (AID 652040); assay type: functional, cell-based;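 note: potency for signal decrease marking cytotoxic or nonspecific inhibition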
[8] = target: Eukaryotic translation initiation factor 4E (Mus musculus, UniProt P63073); assay: eIF4E–eIF4G protein interaction inhibitors, dose response, biochemical, TR-FRET (AID 855); assay type: functional;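 note: potency for disrupting eIF4E binding to eIF4GI seen as loss of FRET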
[9] = target: Neuropeptide Y receptor type 2 (Homo sapiens, UniProt P49146); assay: Fluorescence-based cell-based high-throughput dose response assay for agonists of NPY-Y2. [Related pubchem assays: 1703 (Screening assay (CNGC inhibitors).), 1359 (Screening assay (NPY-Y2 potentiators or agonists).), 1304 (Screening assay (NPY-Y1 potentiators or agonists).), 1710 (Screening assay (NPY-Y2 agonists).), 1791 (Summary AID.)]; assay type: functional
[10] = inhibitors of HIV Env-driven cell fusion, dose response, cherry-pick (AID 652057); assay type: functional, cell-based
[11] = system: INS1; assay: beta cell apoptosis inhibitors, cytokine rescue, dose response, luminescence, retest (AID 449756); assay type: functional, cell-based; settings: Rattus norvegicus;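 note: cell death triggered by IL-1 beta plus TNF-alpha plus IFN-gamma mixture; protective hits raise ATP signal compared with cytokine alone wells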
[12] = inhibitors of clade B AD8 Env fusion, dose response, cell-based, cherry-pick (AID 652062); assay type: functional;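 note: luciferase signal from cell-cell fusion driven by HIV-1 clade B AD8 Env; potency is for inhibitors of fusion seen as a drop in luminescence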

Sequence of Eukaryotic translation initiation factor 4E (P63073 whole entry): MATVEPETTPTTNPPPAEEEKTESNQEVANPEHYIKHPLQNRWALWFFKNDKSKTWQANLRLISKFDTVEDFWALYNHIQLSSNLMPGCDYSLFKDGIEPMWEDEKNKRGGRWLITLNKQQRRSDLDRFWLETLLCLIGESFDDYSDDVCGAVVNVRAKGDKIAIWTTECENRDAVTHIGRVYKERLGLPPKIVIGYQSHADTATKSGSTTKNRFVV
Sequence of Neuropeptide Y receptor type 2 (P49146 whole entry, the tested form may be a part): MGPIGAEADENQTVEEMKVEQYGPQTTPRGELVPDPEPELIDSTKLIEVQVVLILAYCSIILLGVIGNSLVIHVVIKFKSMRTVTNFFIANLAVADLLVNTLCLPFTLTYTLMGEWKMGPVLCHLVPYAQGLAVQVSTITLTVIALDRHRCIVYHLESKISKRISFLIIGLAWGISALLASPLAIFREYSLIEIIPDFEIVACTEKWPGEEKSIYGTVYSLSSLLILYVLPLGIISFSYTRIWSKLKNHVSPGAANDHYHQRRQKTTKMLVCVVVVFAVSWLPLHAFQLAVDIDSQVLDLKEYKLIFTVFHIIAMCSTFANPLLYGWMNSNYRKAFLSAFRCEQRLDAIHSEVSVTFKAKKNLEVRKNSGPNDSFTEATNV
Sequence of Cytochrome P450 3A4 (P08684 whole entry): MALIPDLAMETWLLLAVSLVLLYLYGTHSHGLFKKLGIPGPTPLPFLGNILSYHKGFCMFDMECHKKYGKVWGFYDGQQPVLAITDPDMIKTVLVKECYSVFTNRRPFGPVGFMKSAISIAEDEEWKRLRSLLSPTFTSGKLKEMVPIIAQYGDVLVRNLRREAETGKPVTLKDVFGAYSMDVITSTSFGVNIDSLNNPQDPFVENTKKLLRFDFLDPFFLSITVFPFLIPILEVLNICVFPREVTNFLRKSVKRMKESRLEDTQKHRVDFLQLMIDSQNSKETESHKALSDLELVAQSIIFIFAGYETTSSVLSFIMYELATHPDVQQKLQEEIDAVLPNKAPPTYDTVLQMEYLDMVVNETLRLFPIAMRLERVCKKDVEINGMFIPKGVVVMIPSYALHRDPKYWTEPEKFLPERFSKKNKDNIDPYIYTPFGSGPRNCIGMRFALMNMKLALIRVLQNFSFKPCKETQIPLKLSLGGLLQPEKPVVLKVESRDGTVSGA
Sequence of Lysosomal acid glucosylceramidase (P04062 whole entry): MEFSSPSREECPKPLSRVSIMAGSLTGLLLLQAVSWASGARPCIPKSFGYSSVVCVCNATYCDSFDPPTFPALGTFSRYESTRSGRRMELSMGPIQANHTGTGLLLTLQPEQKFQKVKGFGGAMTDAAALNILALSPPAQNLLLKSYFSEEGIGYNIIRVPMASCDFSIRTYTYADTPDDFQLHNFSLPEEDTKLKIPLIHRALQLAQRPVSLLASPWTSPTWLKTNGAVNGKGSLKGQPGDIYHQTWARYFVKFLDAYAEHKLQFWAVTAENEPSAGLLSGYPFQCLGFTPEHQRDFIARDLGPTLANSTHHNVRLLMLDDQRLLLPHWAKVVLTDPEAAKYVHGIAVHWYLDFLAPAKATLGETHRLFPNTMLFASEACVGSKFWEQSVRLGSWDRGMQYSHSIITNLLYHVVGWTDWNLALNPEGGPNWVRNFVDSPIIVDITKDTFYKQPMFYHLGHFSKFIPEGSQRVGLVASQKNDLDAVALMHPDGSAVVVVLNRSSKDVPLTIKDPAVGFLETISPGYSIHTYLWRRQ
Sequence of Melanin-concentrating hormone receptor 1 (Q99705 whole entry): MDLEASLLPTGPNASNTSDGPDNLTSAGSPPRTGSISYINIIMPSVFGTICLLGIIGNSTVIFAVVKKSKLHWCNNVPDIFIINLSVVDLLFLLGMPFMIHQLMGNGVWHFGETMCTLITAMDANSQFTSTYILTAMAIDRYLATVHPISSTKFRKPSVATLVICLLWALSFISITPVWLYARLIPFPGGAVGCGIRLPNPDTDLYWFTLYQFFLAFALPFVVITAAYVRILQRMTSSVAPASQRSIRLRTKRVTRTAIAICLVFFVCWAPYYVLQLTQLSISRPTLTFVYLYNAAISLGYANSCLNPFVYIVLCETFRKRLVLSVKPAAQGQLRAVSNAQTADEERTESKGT
Sequence of Neuropeptide Y receptor type 1 (P25929 whole entry, the tested form may be a part): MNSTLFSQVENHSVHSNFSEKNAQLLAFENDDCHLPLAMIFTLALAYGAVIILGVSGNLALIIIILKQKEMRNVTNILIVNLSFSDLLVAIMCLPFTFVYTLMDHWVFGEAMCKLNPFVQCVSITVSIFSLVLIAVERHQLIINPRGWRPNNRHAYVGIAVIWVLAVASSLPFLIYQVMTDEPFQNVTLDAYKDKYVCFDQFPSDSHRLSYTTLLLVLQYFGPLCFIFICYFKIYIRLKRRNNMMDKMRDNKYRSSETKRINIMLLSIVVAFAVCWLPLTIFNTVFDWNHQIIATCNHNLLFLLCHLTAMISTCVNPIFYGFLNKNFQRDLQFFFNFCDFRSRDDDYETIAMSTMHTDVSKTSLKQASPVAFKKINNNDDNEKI
Sequence of Cytochrome P450 2C9 (P11712 whole entry): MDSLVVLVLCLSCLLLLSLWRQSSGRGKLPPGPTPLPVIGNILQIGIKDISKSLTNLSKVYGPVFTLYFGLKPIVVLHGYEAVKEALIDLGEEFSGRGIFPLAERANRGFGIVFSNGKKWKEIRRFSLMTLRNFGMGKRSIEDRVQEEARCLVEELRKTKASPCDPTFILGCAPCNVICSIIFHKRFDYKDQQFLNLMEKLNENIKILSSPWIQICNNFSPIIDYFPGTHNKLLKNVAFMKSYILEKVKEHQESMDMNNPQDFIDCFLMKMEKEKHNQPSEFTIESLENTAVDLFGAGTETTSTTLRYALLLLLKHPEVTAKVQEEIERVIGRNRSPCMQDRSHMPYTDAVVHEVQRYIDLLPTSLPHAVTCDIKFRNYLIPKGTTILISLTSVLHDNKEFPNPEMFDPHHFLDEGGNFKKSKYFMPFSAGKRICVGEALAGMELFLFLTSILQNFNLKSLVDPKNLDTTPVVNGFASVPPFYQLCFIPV

EC50 [1]: > 50 µM (not active)
Structure (SMILES): CC(C)Oc1cccc(C(=O)Nc2ccccc2N2CCOCC2)c1

AC50 [2]: 3.16 µM (inconclusive)
AC50 [3]: 7.94 µM (inconclusive)
Structure (SMILES): CCCCCCCC#Cc1ccccc1C(NC(=O)OC)C(C(=O)OC)C(=O)OC (configuration not stated)

IC50 [4]: 13.7 µM (inactive)
Structure (SMILES): Cc1ccc(-n2ncc(Cl)c(Oc3ccccc3)c2=O)cc1

Structure (SMILES): N#C/C(=N\Nc1ccc(Cl)cc1)C(=O)c1ccccc1
EC50 [5]: 7.25 µM (active)
EC50 [6]: 9.38 µM (active)
AC50 [7]: 42 µM (active)
IC50 [8]: > 64 µM (inactive)
EC50 [9]: 9.92 µM (active)
AC50 [10]: 39.2 µM (active)
AC50 [11]: 3.07 µM (active)
AC50 [12]: 24.5 µM (active)
